We go through 17 molecules from patent publication US11548900B2, “Oxazino-quinazoline and oxazino-quinoline type compound, preparation method and uses thereof” (BEIJING SCITECH-MQ PHARMACEUTICALS LIMITED, priority 2018, dated 2023).

One test has as its target HER2 kinase (Homo sapiens (Human), UniProt P04626). Description: Inhibition of HER2 kinase activity (ULight-labeled PolyGT substrate). The test is classed as biochemical. The settings on record: HER2 kinase 10 nM, ATP 10 μM, 2 hours. Put shortly:
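Eleven-point 3-fold dilutions (0.042 nM–2.5 μM final, 1% DMSO) tested in duplicate against 10 nM HER2 with 100 nM ULight-labelled PolyGT and 10 μM ATP. Reaction ran 2 h at RT after 5 min pre-incubation; 665/615 nm TR-FRET ratio used to derive inhibition and IC50.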

The next test deals with BT474 cells. Description: Inhibition of cell proliferation, BT474 (CCK-8, 72 h). The test is classed as cell-based. The following applies: Homo sapiens, BT-474, 72 h incubation. The procedure, abridged: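 BT474 and HCC827 seeded at 10,000 and 3000 cells/well respectively, cultured overnight, then exposed to 10-point 3-fold compound dilutions (top stock 10 mM; 0.25% DMSO final) for 72 h. Viability by CCK-8, OD450; survival normalised to untreated and cell-free blanks, IC50 from curve fit.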

Another test concerns HCC827 cells. Briefly: Inhibition of cell proliferation, HCC827 (CCK-8, 72 h). The settings on record: Homo sapiens, 72 h incubation. The test is classed as cell-based. As to the method: The assay for the inhibition of cell proliferation by small molecular compounds was carried out using the method as follows:
1. 600 μL pancreatin was added to a T75 cell culture flask, which was digested in a 37° C. incubator for about 1 min before 5 mL of DMEM complete culture solution was added, blew evenly, transferred to a 15 mL centrifuge tube, and centrifuged at 1000 rpm for 4 min;
2. The supernatant was removed and 5 mL DMEM complete culture solution was added, blew evenly, and 10 μL cell suspension was taken and mixed with 10 μL 0.4% Trypan Blue, and counted using a cell counter;
3. BT474 and HCC827 cell lines were seeded in 96-well plates at a cell density of 10,000 and 3000 cells/well/80 μL, respectively, and cultured overnight. Only sterile water was added to the 36 wells on the periphery of the 96-well plate without adding cells, and only the 60 wells in the center of the 96-well plate were used for cell assays and controls;
4. Dilution of compounds: the compounds were diluted with a 3-fold dilution to make 10 concentrations in total with an initial concentration of 10 mM;
5. 20 μL of different compounds with different concentrations were added to each well, and 20 μL of complete culture solution was added to the remaining wells. The final concentration of DMSO in each well is 0.25%;
6. After 72 h of incubation, 10 μL CCK-8 reagent was added to each well, and incubated at 37° C. for 1-2 h; and the OD value was read at 450 nm;
7. Cell survival rate (%)=[(As−Ab)/(Ac−Ab)]*100%
As: Assay well (medium containing cell, CCK-8, compound)
Ac: Control well (medium containing cell, CCK-8)
Ab: Blank well (CCK-8, medium without cell and compound)
8. The value was imported into Graphpad Prism5 software for the calculation of IC50s (compound concentration at which 50% maximum survival rate is observed).

Chain of HER2 kinase (P04626 23-1255): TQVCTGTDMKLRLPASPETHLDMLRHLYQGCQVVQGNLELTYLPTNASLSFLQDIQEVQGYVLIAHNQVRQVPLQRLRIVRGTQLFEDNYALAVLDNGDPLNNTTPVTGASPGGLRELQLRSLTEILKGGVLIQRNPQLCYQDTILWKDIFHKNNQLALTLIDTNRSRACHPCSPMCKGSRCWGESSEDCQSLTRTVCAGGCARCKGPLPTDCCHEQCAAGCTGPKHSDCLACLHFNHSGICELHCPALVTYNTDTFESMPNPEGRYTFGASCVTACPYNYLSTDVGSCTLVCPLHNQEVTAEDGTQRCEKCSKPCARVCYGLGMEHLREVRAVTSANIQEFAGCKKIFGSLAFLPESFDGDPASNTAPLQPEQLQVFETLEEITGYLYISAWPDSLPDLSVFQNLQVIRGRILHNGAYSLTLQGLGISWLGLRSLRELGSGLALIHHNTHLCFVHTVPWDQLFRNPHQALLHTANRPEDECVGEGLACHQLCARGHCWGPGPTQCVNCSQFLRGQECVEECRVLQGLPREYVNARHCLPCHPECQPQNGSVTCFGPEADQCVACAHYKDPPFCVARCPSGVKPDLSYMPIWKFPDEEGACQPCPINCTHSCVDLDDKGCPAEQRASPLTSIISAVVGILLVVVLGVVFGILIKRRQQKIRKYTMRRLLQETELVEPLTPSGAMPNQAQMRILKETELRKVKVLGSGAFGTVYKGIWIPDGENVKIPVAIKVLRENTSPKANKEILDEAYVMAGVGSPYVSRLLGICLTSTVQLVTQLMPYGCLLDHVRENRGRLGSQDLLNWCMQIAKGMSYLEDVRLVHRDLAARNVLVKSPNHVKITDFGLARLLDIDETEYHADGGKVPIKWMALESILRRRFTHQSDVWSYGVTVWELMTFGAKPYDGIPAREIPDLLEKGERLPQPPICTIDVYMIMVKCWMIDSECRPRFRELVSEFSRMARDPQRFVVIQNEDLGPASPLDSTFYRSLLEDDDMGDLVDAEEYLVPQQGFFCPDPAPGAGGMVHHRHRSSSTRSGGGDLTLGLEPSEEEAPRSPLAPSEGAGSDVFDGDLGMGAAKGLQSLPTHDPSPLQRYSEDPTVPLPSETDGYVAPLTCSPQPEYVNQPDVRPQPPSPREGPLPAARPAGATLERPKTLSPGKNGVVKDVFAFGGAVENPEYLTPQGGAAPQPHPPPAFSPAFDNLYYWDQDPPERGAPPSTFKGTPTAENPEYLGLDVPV

As a reminder, the IC50 is the concentration needed to halve the response being measured. `CN(C)C/C=C/C(=O)N1CCOc2c1ccc1ncnc(Nc3ccc(Oc4ccccc4)c(F)c3)c21` [Example 58, (E)-4-(dimethylamino)-1-(10-((3-fluoro-4-phenoxyphenyl)amino)-2,3-dihydro-4H-[1,4]oxazino[2,3-f]quinazolin-4-yl)but-2-en-1-one]: the IC50 is no more than 50 nM on HER2 kinase, no more than 50 nM in the test with BT474 cells and 50 to 500 nM with HCC827 cells.

As for `CN(C)C/C=C/C(=O)N1CCOc2c1ccc1ncnc(Nc3ccc(OCc4ccccc4)cc3)c21` [Example 78, (E)-1-(10-((4-(benzyloxy)phenyl)amino)-2,3-dihydro-4H-[1,4]oxazino[2,3-f]quinazolin-4-yl)-4-(dimethylamino)but-2-en-1-one], the IC50 was no more than 50 nM against HER2 kinase, no more than 50 nM with BT474 cells and 500 to 5000 nM with HCC827 cells.

As for `CN(C)C/C=C/C(=O)N1CCOc2c1ccc1ncnc(Nc3ccc(OCc4ccccc4F)cc3)c21` [Example 79, (E)-4-(dimethylamino)-1-(10-((4-((2-fluorobenzyl)oxy)phenyl)amino)-2,3-dihydro-4H-[1,4]oxazino[2,3-f]quinazolin-4-yl)but-2-en-1-one], the IC50 is no more than 50 nM against HER2 kinase, no more than 50 nM in the test with BT474 cells and 500 to 5000 nM with HCC827 cells.

For `CN(C)C/C=C/C(=O)N1CCOc2c1ccc1ncnc(Nc3ccc(OCc4ccccc4Cl)cc3)c21` [Example 80, (E)-4-(dimethylamino)-1-(10-((4-((2-chlorobenzyl)oxy)phenyl)amino)-2,3-dihydro-4H-[1,4]oxazino[2,3-f]quinazolin-4-yl)but-2-en-1-one], the IC50 was no more than 50 nM against HER2 kinase, no more than 50 nM in the test on BT474 cells and 500 to 5000 nM in the test on HCC827 cells.

In the case of `Cc1ccccc1COc1ccc(Nc2ncnc3ccc4c(c23)OCCN4C(=O)/C=C/CN(C)C)cc1` [Example 81, (E)-4-(dimethylamino)-1-(10-((4-((2-methylbenzyl)oxy)phenyl)amino)-2,3-dihydro-4H-[1,4]oxazino[2,3-f]quinazolin-4-yl)but-2-en-1-one], the IC50 is no more than 50 nM at HER2 kinase, no more than 50 nM in the test with BT474 cells and 500 to 5000 nM in the test with HCC827 cells.

As to `COc1ccccc1COc1ccc(Nc2ncnc3ccc4c(c23)OCCN4C(=O)/C=C/CN(C)C)cc1` [Example 82, (E)-4-(dimethylamino)-1-(10-((4-((2-methoxybenzyl)oxy)phenyl)amino)-2,3-dihydro-4H-[1,4]oxazino[2,3-f]quinazolin-4-yl)but-2-en-1-one], the values for the IC50 on HER2 kinase, in the test with BT474 cells and in the test with HCC827 cells were no more than 50 nM, no more than 50 nM and 500 to 5000 nM, respectively.

`Cc1cccc(COc2ccc(Nc3ncnc4ccc5c(c34)OCCN5C(=O)/C=C/CN(C)C)cc2)c1` [Example 84, (E)-4-(dimethylamino)-1-(10-((4-((3-methylbenzyl)oxy)phenyl)amino)-2,3-dihydro-4H-[1,4]oxazino[2,3-f]quinazolin-4-yl)but-2-en-1-one]: the IC50 is no more than 50 nM on HER2 kinase, no more than 50 nM with BT474 cells and 50 to 500 nM in the test with HCC827 cells.

Regarding `CN(C)C/C=C/C(=O)N1CCOc2c1ccc1ncnc(Nc3ccc(OCc4cccc(C#N)c4)cc3)c21` [Example 85, (E)-4-(dimethylamino)-1-(10-((4-((3-cyanobenzyl)oxy)phenyl)amino)-2,3-dihydro-4H-[1,4]oxazino[2,3-f]quinazolin-4-yl)but-2-en-1-one], the IC50 was no more than 50 nM against HER2 kinase, no more than 50 nM with BT474 cells and 500 to 5000 nM in the test with HCC827 cells.

With `COc1cccc(COc2ccc(Nc3ncnc4ccc5c(c34)OCCN5C(=O)/C=C/CN(C)C)cc2)c1` [Example 86, (E)-4-(dimethylamino)-1-(10-((4-((3-methoxybenzyl)oxy)phenyl)amino)-2,3-dihydro-4H-[1,4]oxazino[2,3-f]quinazolin-4-yl)but-2-en-1-one], the results for the IC50 on HER2 kinase, in the test with BT474 cells and with HCC827 cells were no more than 50 nM, no more than 50 nM and 500 to 5000 nM, respectively.

As for `CN(C)C/C=C/C(=O)N1CCOc2c1ccc1ncnc(Nc3ccc(OCc4ccc(Cl)cc4)cc3)c21` [Example 87, (E)-4-(dimethylamino)-1-(10-((4-((4-chlorobenzyl)oxy)phenyl)amino)-2,3-dihydro-4H-[1,4]oxazino[2,3-f]quinazolin-4-yl)but-2-en-1-one], the values for the IC50 on HER2 kinase, in the test with BT474 cells and with HCC827 cells were no more than 50 nM, 50 to 500 nM and 500 to 5000 nM, respectively.

`Cc1ccc(COc2ccc(Nc3ncnc4ccc5c(c34)OCCN5C(=O)/C=C/CN(C)C)cc2)cc1` [Example 88, (E)-4-(dimethylamino)-1-(10-((4-((4-methylbenzyl)oxy)phenyl)amino)-2,3-dihydro-4H-[1,4]oxazino[2,3-f]quinazolin-4-yl)but-2-en-1-one]: the results for the IC50 at HER2 kinase, in the test with BT474 cells and with HCC827 cells were no more than 50 nM, no more than 50 nM and 500 to 5000 nM, respectively.

`CN(C)C/C=C/C(=O)N1CCOc2c1ccc1ncnc(Nc3ccc(OCc4cc(F)ccc4F)cc3)c21` [Example 89, (E)-1-(10-((4-((2,5-difluorobenzyl)oxy)phenyl)amino)-2,3-dihydro-4H-[1,4]oxazino[2,3-f]quinazolin-4-yl)-4-(dimethylamino)but-2-en-1-one]: the IC50 is no more than 50 nM on HER2 kinase, no more than 50 nM with BT474 cells and 500 to 5000 nM in the test with HCC827 cells.

For `CN(C)C/C=C/C(=O)N1CCOc2c1ccc1ncnc(Nc3ccc(OCc4cc(F)ccc4Cl)cc3)c21` [Example 90, (E)-1-(10-((4-((2-chloro-5-fluorobenzyl)oxy)phenyl)amino)-2,3-dihydro-4H-[1,4]oxazino[2,3-f]quinazolin-4-yl)-4-(dimethylamino)but-2-en-1-one], the results for the IC50 at HER2 kinase, with BT474 cells and in the test with HCC827 cells were no more than 50 nM, no more than 50 nM and 500 to 5000 nM, respectively.

Consider `CN(C/C=C/C(=O)N1CCOc2c1ccc1ncnc(Nc3ccc(OCc4ccccn4)c(Cl)c3)c21)C1CC1` [Example 100, (E)-1-(10-((3-chloro-4-(pyridin-2-ylmethoxy)phenyl)amino)-2,3-dihydro-4H-[1,4]oxazino[2,3-f]quinazolin-4-yl)-4-(cyclopropyl(methyl)amino)but-2-en-1-one], for which the IC50 was no more than 50 nM against HER2 kinase, no more than 50 nM with BT474 cells and 50 to 500 nM in the test with HCC827 cells.

Take `O=C(/C=C/CNC1CC1)N1CCOc2c1ccc1ncnc(Nc3ccc(OCc4ccccn4)c(Cl)c3)c21` [Example 101, (E)-1-(10-((3-chloro-4-(pyridin-2-ylmethoxy)phenyl)amino)-2,3-dihydro-4H-[1,4]oxazino[2,3-f]quinazolin-4-yl)-4-(cyclopropylamino)but-2-en-1-one]: the IC50 is 50 to 500 nM at HER2 kinase and 500 to 5000 nM in the test with HCC827 cells.

On to `CC(C)NC/C=C/C(=O)N1CCOc2c1ccc1ncnc(Nc3ccc(OCc4ccccn4)c(Cl)c3)c21` [Example 102, (E)-1-(10-((3-chloro-4-(pyridin-2-ylmethoxy)phenyl)amino)-2,3-dihydro-4H-[1,4]oxazino[2,3-f]quinazolin-4-yl)-4-(isopropylamino)but-2-en-1-one], for which the figures for the IC50 against HER2 kinase, with BT474 cells and in the test on HCC827 cells were no more than 50 nM, no more than 50 nM and 50 to 500 nM, respectively.

Consider `O=C(/C=C/CN1CCOCC1)N1CCOc2c1ccc1ncnc(Nc3ccc(OCc4ccccn4)c(Cl)c3)c21` [Example 103, (E)-1-(10-((3-chloro-4-(pyridin-2-ylmethoxy)phenyl)amino)-2,3-dihydro-4H-[1,4]oxazino[2,3-f]quinazolin-4-yl)-4-morpholinobut-2-en-1-one], for which the figures for the IC50 against HER2 kinase, with BT474 cells and with HCC827 cells were no more than 50 nM, no more than 50 nM and 50 to 500 nM, respectively.
